# Assay results taken from patent EP1192131B1, “METHOD OF INHIBITING AMYLOID PROTEIN AGGREGATION AND IMAGING AMYLOID DEPOSITS USING ISOINDOLINE DERIVATIVES” (Warner-Lambert Company LLC, priority 1999, dated 2000).
# “And” between values parts separate entries of the source, which are not always exact repeats. Identical values can stand only once.
# What was measured:
# Aβ(1-40) [1] = target: T1, Aβ(1-40) (Homo sapiens, UniProt P05067); test: BASSR (Beta-Amyloid Self-Seeding Radioassay), inhibition of self-seeded amyloid fibril growth; type: biochemical; design: Soluble Aβ(1-40) peptide (Bachem, Torrance, CA); purchased Bachem, Torrance, CA; conditions: 30 µM soluble Aβ (1-40) + 125I-labeled Aβ(1-40), 37°C, 3 to 5 hours, several values in a cell = repeat values, letter in parentheses = lot of compound (no letter = Lot P), (ppt), (v-shape) flags
# T1 sequence (P05067 672-711): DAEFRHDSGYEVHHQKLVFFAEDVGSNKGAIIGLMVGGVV
# Experimental: BASSR (Beta-Amyloid Self-Seeding Radioassay)
# (§1) An assay for inhibitors of self-seeded amyloid fibril growth
# Assay Buffer - 50 mM sodium phosphate, pH 7.5, 100 mM NaCl, 0.02% NaN3, 1 M urea (filter and store at 4°C)
# Soluble Aβ(1-40) peptide (Bachem, Torrance, CA) - 2.2 mg/mL in deionized H2O (stored in aliquots at -20°C, keep on ice when thawed) will self-seed after 1 week storage. Typically, the solution should be stored until no lag phase is seen in the assay.
# ^125I-labeled Aβ (1-40) - 150K-350K cpm/µL in 100% acetonitrile -0.1% trifluoroacetic acid (TFA) -1% β-mercaptoethanol (aliquots stored at -20°C) ^125I-labeled Aβ(1-40) can be made in accordance with the procedure set forth by H. LeVine, III in Neurobiol. Aging, 16:755 (1995), which is hereby incorporated by reference, or this reagent may be purchased from Amersham, Arlington Heights, Illinois.
# Final assay conditions: 30 µM soluble Aβ (1-40) in deionized water in assay buffer + 20-50K cpm ^125I-labeled Aβ(1-40) per assay. Compound to be tested is dissolved in dimethylsulfoxide (DMSO), typically 5-50 mM stock, such that the final concentration of DMSO is <1% v/v in the assay.
# Assay: Reaction mixture for 50 assays (on ice) is comprised of 0.1-0.2 µL of ^125I-labeled A^125I-labeled Aβ(1-40) + 1 µL of soluble Aβ (1-40) + 13.5 µL assay buffer per assay. The following are the amounts of the components of the reaction mixture sufficient for 50 assay wells. 5-10 µL ^125I-labeled Aβ (1-40) dried down 675 µL assay buffer 50 µL soluble Aβ (1-40)
# • 1) Prepare reaction mixture above by mixing components and storing on ice. • 2) Pipet 14.5 µL of reaction mixture into each of 50 wells on a polypropylene U-bottom 96-well microtiter plate on ice (Costar 3794). • 3) Add 1.7 µL, of diluted compound to be tested to each well in a column of eight, including solvent control. Serial 3-fold dilutions from 1 mM (100 µM final) in assay buffer -urea = 7 dilutions + zero. Each 96-well plate can therefore accommodate 11 samples + 1 Congo Red control (0.039-5 µM final in 2-fold steps). • 4) Seal the plate with aluminum film (Beckman 538619) and incubate for 10 minutes on ice. • 5) Raise the temperature to 37°C and incubate for 3 to 5 hours (depending on the lot of the peptide). • 6) Remove the aluminum film and add 200 µL/well of ice cold assay buffer with urea, collecting the radiolabeled fibrils by vacuum filtration through 0.2 µm pore size GVWP filters in 96-well plates (Millipore MAGV N22, Bedford, MA). Determine the radioactivity of the filters using standard methods well-known to those skilled in the art.
# Aβ(1-40) [2] = target: T1, Aβ(1-40); test: BASST (Beta-Amyloid Self-seeding, ThioflavinT), inhibition of self-seeded amyloid fibril growth; type: biochemical; design: 30 µM soluble Aβ (1-40) in deionized water in assay buffer; conditions: 30 µM soluble Aβ (1-40), 37°C, 3 to 5 hours, thioflavin T fluorescence, letter in parentheses = lot of compound (no letter = Lot P)
# Experimental: BASST (Beta-Amyloid Self-seeding, ThioflavinT)
# as §1
# Assay Buffer - 50 mM sodium phosphate, pH 7.5, 100 mM NaCl, 0.02% NaN3, 1 M urea (filter and store at 4°C).
# Soluble Aβ (1-40) - 2.2 mg/mL in deionized H2O (store in aliquots at -20°C, keep on ice when thawed) will self-seed after 1 week storage. Typically, the solution should be stored until no lag phase is seen in the assay.
# Final assay conditions: 30 µM soluble Aβ (1-40) in deionized water in assay buffer. Compound to be tested is dissolved in DMSO, typically 5-50 mM stock, such that the final concentration of DMSO is <1% v/v in the assay.
# Assay: Reaction mixture for 50 assays (on ice) comprised of 1 µL of soluble Aβ (1-40) + 13.5 µL assay buffer per assay. The following are the amounts of the components of the reaction mixture that result in each of the 50 assay wells. 50 µL soluble Aβ (1-40) 675 µL assay buffer
# • 1) Prepare the reaction mix above by mixing the components and storing on ice. • 2) Pipet 14.5 µL of reaction mixture into each of 50 wells of a polystyrene U-bottom 96-well microtiter plate (Coming 25881-96) on ice. • 3) Add 1.7 µL of diluted compound to be tested to each well in a column of eight, including solvent control. Serial 3-fold dilutions from 1 mM (100 µM final) in assay buffer -urea = 7 dilutions + zero. Each 96-well plate can therefore accommodate 11 samples + 1 Congo Red control (0.039-5 µM final in 2-fold steps). • 4) Seal the plate with aluminum film and incubate for 10 minutes on ice. • 5) Raise the temperature to 37°C and incubate for 3 to 5 hours (depends on the lot of the peptide). • 6) Remove the aluminum film and add 250 µL/well of 5 µM thioflavin T (ThT) [T-3516, Sigma-Aldrich] in 50 mM glycine-NaOH, pH 8.5. Read fluorescence on a plate reader (ex = 440 nm/20 nm; em = 485 nm/20 nm) within 5 minutes.
# [3] = read-out: BASSR IC50 (converted)
# [4] = read-out: BASST IC50 (converted)
compound,measurement,setting,value
"2-[2-(3,4-Dimethylphenyl)-2,3-dihydro-1H-isoindol-5-ylamino]benzoic acid [Example 9]",IC50,Aβ(1-40) [1]; [3],> 100 µM
same,IC50,Aβ(1-40) [2]; [4],1.5 µM
"2-[2-(3-chlorophenyl)-2,3-dihydro-1H-isoindol-5-ylamino]benzoic acid [Example 7]",IC50,Aβ(1-40) [1]; [3],90 µM and 80 µM and > 100 µM
same,IC50,Aβ(1-40) [2]; [4],1.1 µM
"2-[2-(4-chlorophenyl)-2,3-dihydro-1H-isoindol-5-ylamino]benzoic acid [Example 8]",IC50,Aβ(1-40) [1]; [3],> 100 µM
same,IC50,Aβ(1-40) [2]; [4],1 µM
"O=C(O)c1ccccc1Nc1ccc2c(c1)CN(c1ccc(Cl)c(Cl)c1)C2 [Example 4, 2-[2-(3,4-Dichlorophenyl)-2,3-dihydro-1H-isoindol-5-ylamino]benzoic acid]",IC50,Aβ(1-40) [1]; [3],12 µM and 11 µM (2×) and 15 µM (3×)
same,IC50,Aβ(1-40) [2]; [4],2 µM
"COc1cc(Nc2ccc3c(c2)CN(c2ccc(Cl)c(Cl)c2)C3)c(C(=O)O)cc1[N+](=O)[O-] [Example 6, 2-[2-(3,4-Dichlorophenyl)-2,3-dihydro-1H-isoindol-5-ylamino]-4-methoxy-5-nitro-benzoic acid]",IC50,Aβ(1-40) [1]; [3],7 µM (2×) and 12 µM and 4 µM and 5 µM
same,IC50,Aβ(1-40) [2]; [4],1 µM and 1.5 µM
"O=C(O)c1ccccc1Nc1ccc2c(c1)CN(c1ccc(Cl)c(C(F)(F)F)c1)C2 [Example 10, 2-[2-(4-Chloro-3-trifluoromethylphenyl)-2,3-dihydro-1H-isoindol-5-ylamino]benzoic acid]",IC50,Aβ(1-40) [1]; read-out: BASSR IC50,100 µM and 58 µM and 55 µM and 70 µM
same,IC50,Aβ(1-40) [2]; read-out: BASST IC50,3 µM
"Cc1ccc(N2Cc3ccc(Nc4ccc([N+](=O)[O-])cc4C(=O)O)cc3C2)cc1C [Example 12, 2-[2-(3,4-Dimethyl-phenyl)-2,3-dihydro-1H-isoindol-5-ylamino]-5-nitro-benzoic acid]",IC50,Aβ(1-40) [1]; [3],> 100 µM
same,IC50,Aβ(1-40) [2]; [4],1.1 µM
"O=C(O)c1cc([N+](=O)[O-])ccc1Nc1ccc2c(c1)CN(c1ccc(Cl)cc1)C2 [Example 15, 2-[2-(4-Chloro-phenyl)-2,3-dihydro-1H-isoindol-5-ylamino]-5-nitro-benzoic acid]",IC50,Aβ(1-40) [1]; [3],> 100 µM
same,IC50,Aβ(1-40) [2]; [4],0.6 µM
"Clc1ccc(N2Cc3ccc(Nc4ccccc4-c4nnn[nH]4)cc3C2)cc1Cl [Example 16, [2-(3,4-Dichloro-phenyl)-2,3-dihydro-1H-isoindol-5-yl]-[2-(1H-tetrazol-5-yl)-phenyl]-amine]",IC50,Aβ(1-40) [1]; [3],> 100 µM
same,IC50,Aβ(1-40) [2]; [4],1.8 µM
"Nc1ccc(Nc2ccc3c(c2)CN(c2ccc(Cl)c(Cl)c2)C3)c(C(=O)O)c1 [Example 17, 5-Amino-2-[2-(3,4-dichloro-phenyl)-2,3-dihydro-1H-isoindol-5-ylamino]-benzoic acid]",IC50,Aβ(1-40) [1]; [3],20 µM and 80 µM
same,IC50,Aβ(1-40) [2]; [4],1.5 µM
"O=C(O)c1cc([N+](=O)[O-])ccc1Nc1ccc2c(c1)CN(c1ccccc1)C2 [Example 18, 5-Nitro-2-(2-phenyl-2,3-dihydro-1H-isoindol-5-ylamino)-benzoic acid]",IC50,Aβ(1-40) [1]; [3],7 µM and 4 µM and 5 µM
same,IC50,Aβ(1-40) [2]; [4],0.9 µM and 1 µM and 0.6 µM
"O=C(O)c1cc([N+](=O)[O-])ccc1Nc1ccc2c(c1)CN(c1ccc(Cl)c(C(F)(F)F)c1)C2 [Example 19, 2-[2-(4-Chloro-3-trifluoromethyl-phenyl)-2,3-dihydro-1H-isoindol-5-ylamino]-5-nitro-benzoic acid]",IC50,Aβ(1-40) [1]; read-out: BASSR IC50,1.1 µM and 1 µM
same,IC50,Aβ(1-40) [2]; read-out: BASST IC50,1 µM
"O=C(O)c1cc([N+](=O)[O-])ccc1Nc1ccc2c(c1)CN(c1cccc(F)c1)C2 [Example 20, 2-[2-(3-Fluoro-phenyl)-2,3-dihydro-1H-isoindol-5-ylamino]-5-nitro-benzoic acid]",IC50,Aβ(1-40) [1]; [3],> 100 µM
same,IC50,Aβ(1-40) [2]; [4],2 µM
"COc1cccc(N2Cc3ccc(Nc4ccc([N+](=O)[O-])cc4C(=O)O)cc3C2)c1 [Example 21, 2-[2-(3-Methoxy-phenyl)-2,3-dihydro-1H-isoindol-5-ylamino]-5-nitro-benzoic acid]",IC50,Aβ(1-40) [1]; [3],7 µM and 2.2 µM and 2 µM
same,IC50,Aβ(1-40) [2]; [4],0.7 µM
"O=C(O)c1ccccc1Nc1ccc2c(c1)CN(c1cccc(F)c1)C2 [Example 22, 2-[2-(3-Fluoro-phenyl)-2,3-dihydro-1H-isoindol-5-ylamino]-benzoic acid]",IC50,Aβ(1-40) [1]; [3],10 µM and 3 µM (2×) and 6.5 µM and 8 µM
same,IC50,Aβ(1-40) [2]; [4],6 µM and 2 µM
"O=C(O)c1cc(F)ccc1Nc1ccc2c(c1)CN(c1ccc(Cl)c(Cl)c1)C2 [Example 23, 2-[2-(3,4-Dichloro-phenyl)-2,3-dihydro-1H-isoindol-5-ylamino]-5-fluoro-benzoic acid]",IC50,Aβ(1-40) [1]; [3],> 100 µM and 50 µM and 70 µM
same,IC50,Aβ(1-40) [2]; [4],3 µM and 2 µM (2×)
"COc1cc(N2Cc3ccc(Nc4ccccc4C#N)cc3C2)cc(OC)c1OC [Example 25, 2-[2-(3,4,5-Trimethoxy-phenyl)-2,3-dihydro-1H-isoindol-5-ylamino]-benzonitrile]",IC50,Aβ(1-40) [1]; [3],> 100 µM
same,IC50,Aβ(1-40) [2]; [4],15 µM
"COc1cccc(N2Cc3ccc(Nc4ccccc4C(=O)O)cc3C2)c1 [Example 26, 2-[2-(3-Methoxy-phenyl)-2,3-dihydro-1H-isoindol-5-ylamino]-benzoic acid]",IC50,Aβ(1-40) [1]; [3],> 100 µM
same,IC50,Aβ(1-40) [2]; [4],10 µM
